Data taken from EP4603105A1, “PHARMACEUTICAL COMPOSITION CONTAINING CYCLIC COMPOUND HAVING SELECTIVE KRAS INHIBITORY EFFECT AGAINST HRAS AND NRAS” (CHUGAI SEIYAKU KABUSHIKI KAISHA, priority 2022, dated 2024).
Where two headings read alike, the source gives them in different places.

How the values were obtained:
[1] = target: GDP-bound KRAS wild-type protein (Homo sapiens, UniProt P01116); test: Binding to KRAS by surface plasmon resonance (SPR), dissociation constant KD
Summary of the method: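 Running buffer contained 10 µM GDP and 10 mM MgCl2 to keep RAS in the GDP state, with 4% DMSO at pH 7.4. Compounds were flowed at 100 µL/min in 75 s steps of rising concentration over captured biotin-Avi RAS at 30°C. Sensorgrams were fitted 1:1 for KD.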

[2] = target: GDP-bound NRAS wild-type protein (Homo sapiens, UniProt P01111); test: Binding to NRAS by surface plasmon resonance (SPR), KD and KD ratio to KRAS
Summary of the method: (§1)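 GDP-bound biotin-Avi RAS captured at ~100–300 RU, 30°C, pH 7.4 HBS containing 10 µM GDP, 10 mM MgCl2, 1 mM DTT, 0.01% Tween 20 and 4% DMSO. KD by 1:1 fitting.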

HRAS wild-type protein = HRAS wild-type protein (Homo sapiens, UniProt P01112); test: Binding to HRAS by surface plasmon resonance (SPR), KD and KD ratio to KRAS
Summary of the method: as §1

[3] = system: human lung cancer strain NCI-H441; test: NCI-H441 cell proliferation inhibitory activity (CellTiter-Glo, 4 days); type: cell-based; details: read-out: NCl-H441 IC50
Summary of the method: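 Readout: […] after the ATP-based reagent. Compound: serial dilutions in dimethyl sulfoxide.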

[4] = ratio of KD for GDP-bound NRAS wild-type protein to KD for KRAS
[5] = ratio of KD for HRAS wild-type protein to KD for KRAS

Sequence of HRAS wild-type protein (P01112 whole entry): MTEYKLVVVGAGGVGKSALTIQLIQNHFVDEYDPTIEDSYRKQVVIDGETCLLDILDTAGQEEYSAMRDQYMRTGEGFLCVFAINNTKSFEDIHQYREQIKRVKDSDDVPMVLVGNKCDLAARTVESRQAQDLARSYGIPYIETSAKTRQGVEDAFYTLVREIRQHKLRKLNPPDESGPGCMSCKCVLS
Sequence of GDP-bound NRAS wild-type protein (P01111 whole entry): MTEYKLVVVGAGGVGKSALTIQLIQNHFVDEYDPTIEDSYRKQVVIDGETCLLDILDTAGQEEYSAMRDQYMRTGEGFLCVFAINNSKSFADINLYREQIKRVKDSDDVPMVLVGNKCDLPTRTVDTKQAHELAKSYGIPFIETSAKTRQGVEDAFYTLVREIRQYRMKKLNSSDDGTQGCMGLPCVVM
Sequence of GDP-bound KRAS wild-type protein (P01116 1-188 isoform P01116-2): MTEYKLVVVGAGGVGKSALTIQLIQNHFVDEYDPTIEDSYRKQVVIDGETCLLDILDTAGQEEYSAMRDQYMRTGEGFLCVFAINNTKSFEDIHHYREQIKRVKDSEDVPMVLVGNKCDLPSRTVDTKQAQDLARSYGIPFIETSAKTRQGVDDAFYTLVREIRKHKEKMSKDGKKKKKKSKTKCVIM

| Kd ([1]; Single Cycle Kinetics, 1:1 binding model) [nM] | IC50 ([3]; 50% proliferation inhibitory concentration, four days) [nM] | Kd ([1]; Single Cycle Kinetics) [nM] | IC50 ([3]; NCI-H441 cells, 4 days) [nM] | Kd ([1]; 1:1 binding model) [nM] | SMILES | NRAS /KRAS ([2]; ratio of KD with respect to GDP-bound NRAS wild-type protein to KD with respect to KRAS) | HRAS /KRAS (HRAS wild-type protein; ratio of KD with respect to HRAS wild-type protein to KD with respect to KRAS) | NRAS /KRAS [2, 4] | HRAS /KRAS (HRAS wild-type protein; [5]) |
| --- | --- | --- | --- | --- | --- | --- | --- | --- | --- |
| 0.26 | 18.4 | – | – | – | CCO[C@@H]1C[C@H]2C(=O)NC3(CCC3)C(=O)N(C)[C@@H](C3CCCC3)C(=O)N(C)[C@H](C)CC(=O)N(C)[C@@H](CC(C)C)C(=O)N[C@@H]([C@@H](C)CC)C(=O)N(C)CC(=O)N(C)[C@H]3C/C=C\CCN(C3=O)[C@@H](Cc3ccc(C)cc3)C(=O)N(C)CC(=O)N[C@@H](CCc3cc(F)c(C(F)(F)F)c(F)c3)C(=O)N2C1 [PP1417] | B (a compound having 3 or more and less than 10 is denoted as B) | B (a compound having 3 or more and less than 10 is denoted as B) | – | – |
| – | – | 0.68 | 20.3 | – | CCC[C@H]1C(=O)N[C@@H](C2CCCC2)C(=O)N(C)CC(=O)N(C)[C@H]2C/C=C\CCN(C2=O)[C@@H](Cc2ccc(C(F)(F)F)cc2)C(=O)N(C)CC(=O)N[C@@H](CCc2cc(F)c(C(F)(F)F)c(F)c2)C(=O)N2CC3(CC3)C[C@H]2C(=O)N(C)C2(CCC2)C(=O)N(C)[C@@H](C(CC)CC)C(=O)N(C)[C@H](C(=O)N(C)C)CC(=O)N1C [PP3305] | – | – | AA (a compound having 20 or more is denoted as AA) | A (a compound having 10 or more and less than 20 is denoted as A) |
| – | – | 0.15 | 9.3 | – | CCC[C@H]1C(=O)N[C@@H]([C@@H](C)CC)C(=O)N(C2CC2)CC(=O)N(C)[C@H]2C/C=C\CCN(C2=O)[C@@H](Cc2ccc(C)cc2)C(=O)N(C)CC(=O)N[C@@H](CCc2cc(F)c(C(F)(F)F)c(F)c2)C(=O)N2CC[C@H](OC)[C@H]2C(=O)N(C)C2(CCC2)C(=O)N(C)[C@@H](C2CCCC2)C(=O)N(C)[C@H](C(=O)N(C)C)CC(=O)N1C [PP3285] | – | – | A (a compound having 10 or more and less than 20 is denoted as A) | A (a compound having 10 or more and less than 20 is denoted as A) |
| – | – | – | 55.5 | 0.78 | CCO[C@@H]1C[C@H]2C(=O)NC3(CC(C)(C)C3)C(=O)N(C)[C@@H](C(CC)CC)C(=O)N(C)[C@H](C(=O)N(C)C)CC(=O)N(C)[C@@H](CC3CC3)C(=O)N[C@@H]([C@@H](C)CC)C(=O)N(C)CC(=O)N(C)[C@H]3C/C=C\CCN(C3=O)[C@@H](CC3CCC(F)(F)CC3)C(=O)N(C)CC(=O)N[C@@H](CCc3cc(F)c(C(F)(F)F)c(F)c3)C(=O)N2C1 [PP2485] | – | – | A (a compound having 10 or more and less than 20 is denoted as A) | A (a compound having 10 or more and less than 20 is denoted as A) |
| – | – | – | 115 | 0.25 | CCO[C@H](C)[C@@H]1NC(=O)[C@H](CC(C)C)N(C)C(=O)C[C@@H](C(=O)N(C)CC)N(C)C(=O)[C@H](C2CCCC2)N(C)C(=O)C2(CC(C)(C)C2)NC(=O)[C@@H]2C[C@H](C)CN2C(=O)[C@H](CCc2ccc(C(F)(F)F)c(OC)c2)NC(=O)CN(C)C(=O)[C@H](Cc2ccc(C)cc2)N2CC/C=C\C[C@@H](C2=O)N(C)C(=O)CN(C)C1=O [PP2413] | – | – | A (a compound having 10 or more and less than 20 is denoted as A) | A (a compound having 10 or more and less than 20 is denoted as A) |
| – | – | – | 7.1 | 0.2 | CCO[C@@H]1C[C@H]2C(=O)NC3(CC(C)(C)C3)C(=O)N(C)[C@@H](CC(C)(C)C)C(=O)N(C)[C@H](C(=O)N(C)C)CC(=O)N(C)[C@@H](COC)C(=O)N[C@@H]([C@@H](C)CC)C(=O)N(C3CC3)CC(=O)N(C)[C@H]3C/C=C\CCN(C3=O)[C@@H](Cc3ccc(C(F)(F)F)cc3)C(=O)N(C)CC(=O)N[C@@H](CCc3ccc(C(F)(F)F)c(OC)c3)C(=O)N2C1 [PP2748] | – | – | A (a compound having 10 or more and less than 20 is denoted as A) | A (a compound having 10 or more and less than 20 is denoted as A) |
| – | – | 0.22 | 3.4 | – | CCC[C@H]1C(=O)N[C@@H]([C@@H](C)CC)C(=O)N(C2CC2)CC(=O)N(C)[C@H]2C/C(F)=C\CCN(C2=O)[C@@H](Cc2ccc(C)cc2)C(=O)N(C)CC(=O)N[C@@H](CCc2ccc(C(F)(F)F)c(OC)c2)C(=O)N2C[C@H](OCC)C[C@H]2C(=O)N(C)C2(CCC2)C(=O)N(C)[C@@H](C2CCCC2)C(=O)N(C)[C@H](C(=O)N(C)C)CC(=O)N1C [PP3525] | – | – | B (a compound having 3 or more and less than 10 is denoted as B) | B (a compound having 3 or more and less than 10 is denoted as B) |
| – | – | – | 72.2 | 1.3 | CCO[C@@H]1C[C@H]2C(=O)NC3(CC(C)(C)C3)C(=O)N(C)[C@@H](C(CC)CC)C(=O)N(C)[C@H](C(=O)N(C)C)CC(=O)N(C)[C@@H](COC)C(=O)N[C@@H]([C@@H](C)CC)C(=O)N(C)CC(=O)N(C)[C@H]3C/C=C\CCN(C3=O)[C@@H](CC3CCCCC3)C(=O)N(C)CC(=O)N[C@@H](CCc3ccc(C(F)(F)F)c(Cl)c3)C(=O)N2C1 [PP2468] | – | – | AA (a compound having 20 or more is denoted as AA) | A (a compound having 10 or more and less than 20 is denoted as A) |
| – | – | – | 31.9 | 0.48 | CC[C@H](C)[C@@H]1NC(=O)[C@H](CC(C)C)N(C)C(=O)C[C@@H](C(=O)N(C)C)N(C)C(=O)[C@H](C2CCCC2)N(C)C(=O)C2(CC(C)(C)C2)NC(=O)[C@@H]2C[C@H](C)CN2C(=O)[C@H](CCc2ccc(C(F)(F)F)c(OC)c2)NC(=O)CN(C)C(=O)[C@H](Cc2ccc(C)cc2)N2CC/C=C\C[C@@H](C2=O)N(C)C(=O)[C@@H]2CCCN2C1=O [PP2409] | – | – | A (a compound having 10 or more and less than 20 is denoted as A) | B (a compound having 3 or more and less than 10 is denoted as B) |
| – | – | 0.41 | 9.4 | – | CCC[C@H]1C(=O)N[C@@H]([C@@H](C)CC)C(=O)N2CCC[C@H]2C(=O)N(C)[C@H]2C/C(F)=C\CCN(C2=O)[C@@H](Cc2ccc(C(F)(F)F)cc2)C(=O)N(C)CC(=O)N[C@@H](CCc2ccc(C(F)(F)F)c(OC)c2)C(=O)N2C[C@H](OCC)C[C@H]2C(=O)N(C)C2(CCC2)C(=O)N(C)[C@@H](C2CCCC2)C(=O)N(C)[C@H](C(=O)N(C)C)CC(=O)N1C [PP3509] | – | – | B (a compound having 3 or more and less than 10 is denoted as B) | B (a compound having 3 or more and less than 10 is denoted as B) |
| – | – | 0.064 | 7.9 | – | CCO[C@@H]1C[C@H]2C(=O)NC3(CC(C)(C)C3)C(=O)N(C)[C@@H](C3CCCC3)C(=O)N(C)[C@H](C(=O)N(C)C)CC(=O)N(C)[C@@H]([C@H](C)OC)C(=O)N[C@@H]([C@@H](C)CC)C(=O)N(C)CC(=O)N(C)[C@H]3C/C=C\CCN(C3=O)[C@@H](Cc3ccc(C(F)(F)F)cc3)C(=O)N(C)CC(=O)N[C@@H](CCc3cc(F)c(C(F)(F)F)c(F)c3)C(=O)N2C1 [PP3169] | – | – | A (a compound having 10 or more and less than 20 is denoted as A) | A (a compound having 10 or more and less than 20 is denoted as A) |
| – | – | 0.2 | 12.8 | – | CCC[C@H]1C(=O)N[C@@H]([C@@H](C)CC)C(=O)N(C)CC(=O)N(C)[C@H]2C/C=C\CCN(C2=O)[C@@H](Cc2ccc(C(F)(F)F)cc2)C(=O)N(C)CC(=O)N[C@@H](CCc2cc(F)c(C(F)(F)F)c(F)c2)C(=O)N2CC3(CC3)C[C@H]2C(=O)NC2(CCC2)C(=O)N(C)[C@@H]([C@@H](C)CC)C(=O)N(C)[C@H](C(=O)N(C)C)CC(=O)N1C [PP3404] | – | – | AA (a compound having 20 or more is denoted as AA) | A (a compound having 10 or more and less than 20 is denoted as A) |
| – | – | – | 394 | 4.6 | CCC[C@H]1C(=O)N[C@@H](CC(C)C)C(=O)N(CCOC)CC(=O)N(C)[C@H]2C/C=C\CCN(C2=O)[C@@H](Cc2ccc(C)cc2)C(=O)N(C)CC(=O)N[C@@H](CCc2ccc(C(F)(F)F)c(OC)c2)C(=O)N2C[C@H](OCC)C[C@H]2C(=O)NC2(CCC2)C(=O)N(C)[C@@H](C2CCCC2)C(=O)N(C)[C@H](C(=O)N(C)C)CC(=O)N1C [PP2542] | – | – | B (a compound having 3 or more and less than 10 is denoted as B) | B (a compound having 3 or more and less than 10 is denoted as B) |
| – | – | 0.96 | 39.8 | – | CCCOC[C@H]1C(=O)N[C@@H](C2CCCC2)C(=O)N(CCC)CC(=O)N(C)[C@H]2C/C=C\CCN(C2=O)[C@@H](Cc2ccc(C(F)F)cc2)C(=O)N(C)CC(=O)N[C@@H](CCc2cc(F)c(C(F)(F)F)c(F)c2)C(=O)N2C[C@H](OC(C)C)C[C@H]2C(=O)N(C)C2(CCC2)C(=O)N(C)[C@@H](C(CC)CC)C(=O)N(C)[C@H](C(=O)N(C)C)CC(=O)N1C [PP3487] | – | – | A (a compound having 10 or more and less than 20 is denoted as A) | A (a compound having 10 or more and less than 20 is denoted as A) |
| – | – | – | 4.8 | 0.076 | CCC[C@H]1C(=O)N[C@@H]([C@@H](C)CC)C(=O)N2CCC[C@H]2C(=O)N(C)[C@H]2C/C=C\CCN(C2=O)[C@@H](Cc2ccc(C(F)(F)F)cc2)C(=O)N(C)CC(=O)N[C@@H](CCc2ccc(C(F)(F)F)c(OC)c2)C(=O)N2C[C@@H](C)C[C@H]2C(=O)N(C)C2(CCC2)C(=O)N(C)[C@@H](C2CCCC2)C(=O)N(C)[C@H](C(=O)N(C)C)CC(=O)N1C [PP2362] | – | – | A (a compound having 10 or more and less than 20 is denoted as A) | A (a compound having 10 or more and less than 20 is denoted as A) |
